Reference: patent publication US20200190464A1, “NOVEL LAC[…] ANTIVIRAL EFFECT AND COMPOSITION THEREOF” (priority 2017, published 2020)

Tested on: A/CK/ANYANG/MS96 (H9N2)
Parameters: species or system low-pathogenic avian influenza H9N2 serotype virus

CCOC(=O)C1=C[C@@H](OC(CC)CC)[C@H](NC(C)=O)[C@@H](N)C1 [Tamiflu, Oseltamivir phosphate]
HA positive (eggs): 0/3
HA titer: 0
antiviral activity (virus detection in sensitized and inoculated eggs): showed antiviral activity
